Assay results: PubChem BioAssay (NCI)
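Growth conditions: 96-well plates. Treatment: test compound, 48 hours, 5 concentrations. Analysis: linear interpolation between bracketing concentrations; unreached endpoints set to highest concentration. TGI: concentration producing complete growth inhibition.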

How the values were obtained:
Experiment in all cases: DTP human tumour cell line panel, 48 h
SK-MEL-2 melanoma = test system: SK-MEL-2 melanoma
SW-620 colon = test system: SW-620 colon
HOP-92 NSCLC = test system: HOP-92 NSCLC
NCI-H522 lung = test system: NCI-H522 lung
A549 NSCLC = test system: A549 NSCLC
A498 renal = test system: A498 renal
OVCAR-3 ovarian = test system: OVCAR-3 ovarian
SNB-75 CNS = test system: SNB-75 CNS
HL-60(TB) leukemia = test system: HL-60(TB) leukemia
SF-539 CNS = test system: SF-539 CNS
MALME-3M melanoma = test system: MALME-3M melanoma
NCI-H23 lung = test system: NCI-H23 lung
IGROV1 ovarian = test system: IGROV1 ovarian
HOP-62 NSCLC = test system: HOP-62 NSCLC

Compound | TGI (SK-MEL-2 melanoma) [µM] | TGI (SW-620 colon) [µM] | TGI (HOP-92 NSCLC) [µM] | TGI (NCI-H522 lung) [µM] | TGI (A549 NSCLC) [µM] | TGI (A498 renal) [µM] | TGI (OVCAR-3 ovarian) [µM] | TGI (SNB-75 CNS) [µM] | TGI (HL-60(TB) leukemia) [µM] | TGI (SF-539 CNS) [µM] | TGI (MALME-3M melanoma) [µM] | TGI (NCI-H23 lung) [µM] | TGI (IGROV1 ovarian) [µM] | TGI (HOP-62 NSCLC) [µM]
CC1CC(C)[C@H](O)C([C@H](O)CC2CC(=O)N(C)C(=O)C2)C1 (some centres not stated) | > 100 | > 100 | > 100 | > 100 | > 100 | > 100 | > 100 | > 100 | > 100 | > 100 | > 100 | > 100 | > 100 | > 100
CCC(C)C(C(=O)N/N=C1/SCC(=O)N1C)C(=O)N/N=C1/SCC(=O)N1C (configuration not stated) | > 100 | > 100 | > 100 | > 100 | > 100 | > 100 | > 100 | > 100 | 7.65 | > 100 | > 100 | > 100 | > 100 | > 100
CC(C)(C)OC(=O)NC1CC=CCC1NC(=O)OC(C)(C)C (configuration not stated) | > 100 | > 100 | > 100 | > 100 | > 100 | > 100 | > 100 | > 100 | > 100 | > 100 | > 100 | > 100 | > 100 | > 100
CC(=O)NC1=C(C)C(=O)c2c(nc3n2CCC3OC(=O)c2ccccc2)C1=N (configuration not stated) | 4.18 | 5.17 | 5.47 | 7.47 | 11 | 3.66 | 5.71 | 5.27 | 3.74 | 2.56 | 2.45 | 3.83 | 3.58 | 7.28
COc1cccc(/C(CC(O)(C(F)(F)F)C(F)(F)F)=N\N(C)C)c1 | > 100 | > 100 | > 100 | > 100 | > 100 | > 100 | > 100 | > 100 | > 100 | > 100 | > 100 | > 100 | > 100 | > 100
COC1(C(C)(C)C)C=C(C(C)(C)C)P(=O)(O)O1 (configuration not stated) | > 100 | > 100 | > 100 | > 100 | > 100 | > 100 | > 100 | > 100 | > 100 | > 100 | > 100 | > 100 | > 100 | > 100
NCC[Se][Se]CCN | 23.2 | 48.9 | 35.8 | 25.6 | 25.3 | 23.8 | 28.3 | 27.4 | 7.57 | 34.4 | 25.2 | 30.6 | 25.7 | 21.3
COc1ccc(N(C)CN(C)c2nc(N(C)C)nc(N(C)C)n2)cc1 | > 100 | > 100 | > 100 | > 100 | > 100 | > 100 | > 100 | > 100 | > 100 | > 100 | > 100 | > 100 | > 100 | > 100
